Source: the supplement of paper PMC10307832

compound: O=c1ncccn1[C@@H]1O[C@H](CO)[C@@H](O)[C@H]1O [Zebularine] + Nc1nc2[nH]cc(CCc3ccc(C(=O)N[C@@H](CCC(=O)O)C(=O)O)cc3)c2c(=O)[nH]1 [Pemetrexed] (partner 0.2 µM); assay: relative viability (nuclei count vs DMSO), 5 days (fraction); higher = more cells survive; details: first compound 1 µM
Procedure, shortened: (§1)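 Values are medians from duplicate plates. Each reflects relative viability, defined as the nuclei count of treated wells over that of vehicle wells. Lung cancer cell lines in 1536-well plates were pin-tool dosed one day after seeding with one drug alone or with a fixed anchor-drug dose plus five library-drug doses (not always all listed) in √10 steps, then fixed, stained and imaged at 4× after 5 days.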

Point of comparison: NCI-H1792, relative viability 1.04. Against it:
- NCI-H2342 — lower, 0.795
- NCI-H1650 — lower, 0.381
- NCI-H1993 — lower, 0.612
- SW 1573 — lower, 0.798
- NCI-H838 — lower, 0.259
- LCLC-103H — lower, 0.459
- NCI-H520 — lower, 0.687
- NCI-H2126 — lower, 0.635
- EMC-BAC-2 — lower, 0.496
- NCI-H2085 — lower, 0.913
- HCC-366 — lower, 0.168
- NCI-H1666 — lower, 0.878
- NCI-H596 — lower, 0.478
- LK-2 — lower, 0.321
- NCI-H2087 — lower, 0.722
- NCI-H1648 — lower, 0.652
- SK-MES-1 — higher, 1.08
- H3255 — lower, 0.641
- HCC-44 — lower, 0.723
- NCI-H522 — lower, 0.888
- SW 900 — lower, 0.534
- NCI-H661 — lower, 0.939
- NCI-H1563 — lower, 0.896
- NCI-H358 — lower, 0.159
- NCI-H650 — lower, 0.918

same assay, conditions: first compound 3.162 µM

Point of comparison: NCI-H661, relative viability 0.951. Against it:
- NCI-H2342 — lower, 0.73
- NCI-H1650 — lower, 0.35
- NCI-H1993 — lower, 0.65
- SW 1573 — lower, 0.854
- NCI-H838 — lower, 0.267
- LCLC-103H — lower, 0.443
- NCI-H520 — lower, 0.588
- NCI-H2126 — lower, 0.487
- EMC-BAC-2 — lower, 0.466
- NCI-H2085 — lower, 0.881
- HCC-366 — lower, 0.179
- NCI-H1666 — lower, 0.788
- NCI-H596 — lower, 0.513
- LK-2 — lower, 0.298
- NCI-H2087 — lower, 0.667
- NCI-H1648 — lower, 0.613
- SK-MES-1 — lower, 0.918
- H3255 — lower, 0.576
- HCC-44 — lower, 0.625
- NCI-H522 — higher, 1.1
- SW 900 — lower, 0.483
- NCI-H1792 — lower, 0.71
- NCI-H1563 — lower, 0.717
- NCI-H358 — lower, 0.187
- NCI-H650 — higher, 1.03

same assay, conditions: first compound 10 µM

Point of comparison: NCI-H1993, relative viability 0.518. Against it:
- NCI-H2342 — higher, 0.572
- NCI-H1650 — lower, 0.387
- NCI-H838 — lower, 0.234
- LCLC-103H — lower, 0.388
- NCI-H520 — lower, 0.374
- NCI-H2126 — higher, 0.592
- EMC-BAC-2 — lower, 0.428
- NCI-H2085 — higher, 0.753
- HCC-366 — lower, 0.136
- NCI-H1666 — higher, 0.753
- NCI-H596 — lower, 0.428
- LK-2 — lower, 0.173
- NCI-H2087 — lower, 0.511
- NCI-H1648 — the same, 0.518
- SK-MES-1 — higher, 0.613
- H3255 — higher, 0.553
- HCC-44 — higher, 0.646
- NCI-H522 — higher, 0.967
- NCI-H661 — higher, 0.832
- NCI-H1792 — lower, 0.24
- NCI-H1563 — higher, 0.689
- NCI-H358 — lower, 0.161
- NCI-H650 — higher, 0.757

same assay, conditions: first compound 31.62 µM

Point of comparison: NCI-H1563, relative viability 0.728. Against it:
- NCI-H2342 — higher, 0.749
- NCI-H1650 — lower, 0.523
- NCI-H1993 — lower, 0.58
- SW 1573 — higher, 0.855
- NCI-H838 — lower, 0.221
- LCLC-103H — lower, 0.504
- NCI-H520 — lower, 0.239
- NCI-H2126 — lower, 0.453
- EMC-BAC-2 — lower, 0.458
- NCI-H2085 — higher, 0.877
- HCC-366 — lower, 0.192
- NCI-H1666 — higher, 0.824
- NCI-H596 — lower, 0.42
- LK-2 — lower, 0.253
- NCI-H2087 — lower, 0.548
- NCI-H1648 — higher, 0.804
- SK-MES-1 — lower, 0.709
- H3255 — lower, 0.516
- HCC-44 — lower, 0.679
- NCI-H522 — higher, 1.03
- SW 900 — lower, 0.53
- NCI-H661 — higher, 0.995
- NCI-H1792 — lower, 0.307
- NCI-H358 — lower, 0.162
- NCI-H650 — lower, 0.454

same assay, conditions: first compound 100 µM

Point of comparison: NCI-H1648, relative viability 0.683. Against it:
- NCI-H2342 — lower, 0.628
- NCI-H1650 — lower, 0.33
- NCI-H1993 — lower, 0.585
- SW 1573 — lower, 0.522
- NCI-H838 — lower, 0.17
- LCLC-103H — lower, 0.443
- NCI-H520 — lower, 0.215
- NCI-H2126 — lower, 0.348
- EMC-BAC-2 — lower, 0.474
- NCI-H2085 — lower, 0.495
- HCC-366 — lower, 0.0894
- NCI-H1666 — higher, 0.791
- NCI-H596 — lower, 0.494
- LK-2 — lower, 0.131
- NCI-H2087 — lower, 0.216
- SK-MES-1 — lower, 0.322
- H3255 — lower, 0.563
- HCC-44 — lower, 0.445
- NCI-H522 — higher, 0.95
- SW 900 — lower, 0.41
- NCI-H661 — higher, 0.891
- NCI-H1792 — lower, 0.271
- NCI-H1563 — higher, 0.791
- NCI-H358 — lower, 0.179
- NCI-H650 — lower, 0.286

compound: CC(C)CCN1c2nc(Nc3cc(F)c(O)c(F)c3)ncc2N(C)C(=O)C1C [BI-D1870] + CC1(C)CCC(c2ccc(Cl)cc2)=C(CN2CCN(c3ccc(C(=O)NS(=O)(=O)c4ccc(N[C@H](CCN5CCOCC5)CSc5ccccc5)c(S(=O)(=O)C(F)(F)F)c4)cc3)CC2)C1 [Navitoclax] (partner 0.5 µM); assay: as above; details: first compound 0.04 µM
Procedure, shortened: as §1

Point of comparison: EBC-1, relative viability 0.433. Against it:
- NCI-H727 — higher, 0.459
- NCI-H1650 — higher, 1.26
- NCI-H1703 — higher, 1.1
- NCI-H1993 — higher, 0.91
- SW 1573 — higher, 0.93
- NCI-H838 — higher, 1.28
- NCI-H520 — higher, 1.12
- NCI-H2126 — higher, 0.876
- EMC-BAC-2 — higher, 1.24
- NCI-H2085 — higher, 1.14
- Calu-6 — higher, 0.989
- HCC-366 — higher, 1.15
- NCI-H1666 — higher, 0.89
- NCI-H596 — higher, 1.21
- LK-2 — higher, 1.22
- NCI-H2087 — higher, 1.14
- SK-MES-1 — higher, 1.25
- H3255 — higher, 0.688
- IA-LM — higher, 0.818
- HCC-44 — higher, 1.04
- A549 — higher, 1.31
- NCI-H1299 — higher, 1.04
- NCI-H1792 — higher, 0.655

same assay, conditions: first compound 0.1265 µM

Point of comparison: NCI-H520, relative viability 1.01. Against it:
- NCI-H727 — lower, 0.362
- NCI-H1650 — higher, 1.05
- EBC-1 — lower, 0.424
- NCI-H1703 — lower, 0.846
- NCI-H1993 — lower, 0.888
- SW 1573 — lower, 0.81
- NCI-H838 — higher, 1.04
- NCI-H2126 — lower, 0.829
- EMC-BAC-2 — higher, 1.06
- NCI-H2085 — higher, 1.07
- Calu-6 — lower, 0.829
- HCC-366 — lower, 0.964
- NCI-H1666 — lower, 0.822
- NCI-H596 — lower, 0.922
- LK-2 — lower, 0.885
- NCI-H2087 — the same, 1.01
- SK-MES-1 — higher, 1.23
- H3255 — lower, 0.598
- IA-LM — lower, 0.926
- HCC-44 — lower, 0.944
- A549 — higher, 1.15
- NCI-H1299 — lower, 1
- NCI-H1792 — lower, 0.666

same assay, conditions: first compound 0.4 µM

Point of comparison: NCI-H1666, relative viability 0.81. Against it:
- NCI-H727 — lower, 0.416
- NCI-H1650 — higher, 1.23
- EBC-1 — lower, 0.367
- NCI-H1703 — higher, 1.02
- NCI-H1993 — higher, 0.988
- SW 1573 — higher, 1.13
- NCI-H838 — higher, 1.12
- NCI-H520 — higher, 0.938
- NCI-H2126 — higher, 0.853
- EMC-BAC-2 — higher, 1.09
- NCI-H2085 — higher, 1.11
- Calu-6 — higher, 0.823
- HCC-366 — higher, 1.08
- NCI-H596 — higher, 0.947
- LK-2 — higher, 0.964
- NCI-H2087 — higher, 1.06
- SK-MES-1 — higher, 1.15
- H3255 — lower, 0.56
- IA-LM — lower, 0.764
- HCC-44 — higher, 0.999
- A549 — higher, 1.28
- NCI-H1299 — higher, 1.09
- NCI-H1792 — lower, 0.597

same assay, conditions: first compound 1.265 µM

Point of comparison: SK-MES-1, relative viability 1.07. Against it:
- NCI-H727 — lower, 0.607
- NCI-H1650 — higher, 1.34
- EBC-1 — lower, 0.194
- NCI-H1703 — higher, 1.28
- NCI-H1993 — the same, 1.07
- SW 1573 — lower, 0.852
- NCI-H838 — higher, 1.29
- NCI-H520 — lower, 1.05
- NCI-H2126 — lower, 0.904
- EMC-BAC-2 — higher, 1.21
- NCI-H2085 — lower, 1.06
- Calu-6 — lower, 0.671
- HCC-366 — lower, 1.01
- NCI-H1666 — lower, 0.933
- NCI-H596 — higher, 1.2
- LK-2 — lower, 1.05
- NCI-H2087 — higher, 1.09
- H3255 — lower, 0.595
- IA-LM — lower, 0.577
- HCC-44 — higher, 1.1
- A549 — higher, 1.15
- NCI-H1299 — lower, 1.01
- NCI-H1792 — lower, 0.791

same assay, conditions: first compound 4 µM

Point of comparison: LK-2, relative viability 0.945. Against it:
- NCI-H727 — lower, 0.501
- NCI-H1650 — higher, 1.15
- EBC-1 — lower, 0.134
- NCI-H1703 — lower, 0.745
- NCI-H1993 — lower, 0.73
- SW 1573 — lower, 0.602
- NCI-H838 — higher, 1.21
- NCI-H520 — lower, 0.829
- NCI-H2126 — lower, 0.771
- EMC-BAC-2 — higher, 1.18
- NCI-H2085 — lower, 0.865
- Calu-6 — lower, 0.352
- HCC-366 — higher, 1.05
- NCI-H1666 — lower, 0.851
- NCI-H596 — higher, 0.987
- NCI-H2087 — lower, 0.802
- SK-MES-1 — lower, 0.692
- H3255 — lower, 0.468
- IA-LM — lower, 0.19
- HCC-44 — lower, 0.847
- A549 — lower, 0.123
- NCI-H1299 — lower, 0.843
- NCI-H1792 — lower, 0.608

compound: O=c1ncccn1[C@@H]1O[C@H](CO)[C@@H](O)[C@H]1O [Zebularine] + CC1(C)CCC(c2ccc(Cl)cc2)=C(CN2CCN(c3ccc(C(=O)NS(=O)(=O)c4ccc(N[C@H](CCN5CCOCC5)CSc5ccccc5)c(S(=O)(=O)C(F)(F)F)c4)cc3)CC2)C1 [Navitoclax] (partner 0.5 µM); assay: as above; details: first compound 1 µM
Procedure, shortened: as §1

Point of comparison: NCI-H1650, relative viability 1.06. Against it:
- NCI-H727 — lower, 0.492
- EBC-1 — lower, 0.398
- NCI-H1703 — higher, 1.17
- NCI-H1993 — lower, 0.946
- SW 1573 — lower, 1.04
- NCI-H838 — higher, 1.2
- NCI-H520 — higher, 1.16
- NCI-H2126 — lower, 0.862
- EMC-BAC-2 — higher, 1.35
